{
  "source": "patent US20250367330A1",
  "about": "“OPTICAL CLEARING ENABLED BY THE KRAMERS-KRONIG RELATION” (The Board of Trustees of the Leland Stanford Junior …, priority 2021, published 2025)",
  "key": {"[1]": {"experiment": "Screening of absorbing molecules for K-Klear by α, β and β/α spectra", "format": "physicochemical", "from_the_text": "(FIG. 3A) The relation between average molar absorption a and average molar n′ change β in the wavelength range between 500 to 700 nm for different molecules. (FIG. 3B) The ratio between the molar n′ change and molar absorption (β/α) for different absorbing molecules. The “white window” indicates a potential clearing spectrum with sufficient Δn′ and minimal absorption. (FIGS. 3C-3D) Imaginary part n″ (FIG. 3C) and real part n′ (FIG. 3D) of the RI of Dye-4 solutions at different concentrations measured from ellipsometry.\nIn practice, the agent should display a large absorption coefficient in order to realize the large, required changes in n′. […] At the same time, the agent should have minimal absorption at the wavelength for imaging, thus calling for a single narrow absorption peak without any additional absorption at longer wavelengths. In addition to these purely optical requirements, the agents also need to display a high solubility and diffusivity in water as well as excellent biocompatibility to facilitate in vivo application."}, "[2]": {"experiment": "Ellipsometry measurement of solution refractive index and molar n′ change β", "format": "physicochemical", "description": "A Horiba UVISEL ellipsometer was used to measure the real and imaginary parts of the refractive index of solutions at different concentrations of specific dye molecules. For solution measurement, 5 mL of solution was added to a shallow glass petri-dish (35×10 mm, Corning Falcon). The solution covers the entire bottom of the petri-dish creating a flat, reflective air-liquid interface. The reflected light was measured at an angle of 69.85° and the refractive index of the solution was calculated using a single interface semi-infinite reflection model. For all the measurements, 0.2 s integration time was used for each wavelength.\nMeasurements of the Molar n′ Change, β\nThe molar n′ change, β, is defined and measured according to the following quantitative relationship between the n′ and c (i.e., the concentration) of an aqueous solution containing dissolved clearing agents:\n[formula] • where nw′ is the real RI of pure water, c is the molar concentration (M) of the clearing agent, and β is its molar n′ change. Note that n′, nw′, and β all have wavelength dependence. According to eq. (6), by measuring the n′(λ) of the solutions with ellipsometry, one can obtain β(λ) by fitting n′(λ) with c to a linear relationship."}, "chicken breast tissue [3]": {"tested_on": "chicken breast tissue", "experiment": "Temporal evolution of transmittance during immersion, diffusion in chicken breast tissue", "from_the_text": "(FIG. 19A) Temporal evolution of transmittance T at different wavelengths of a chicken breast tissue immersed in a 0.62 M solution of Dye-4. (FIG. 19B) Temporal evolution of normalized T at different wavelengths. T is normalized between 0 and 1 against minimum and maximum T for each wavelength. (FIG. 19C) Temporal evolution of normalized T averaged over measurements at all wavelengths in FIG. 19B, enabling the extraction of the diffusion constant by fitting the normalized T to\nThis tissue sample has a thickness of d=1.82 mm; therefore, the diffusion coefficient D of Dye-4 therein can be calculated as\nFor this reason, estimates of the diffusion rate of Dye-4 molecules can be made in chicken breast by tracking the temporal evolution of T during dye immersion (FIGS. 6F and 19A-19C). […] Using a dilute solution to achieve the same Δn′ and clearing effect benefits from a low viscosity of the clearing agent, thus promoting its diffusion kinetics.\nFor transmission measurements of chicken breast tissue, the tissue sample was first mounted on a microscope slide (precleaned, 12-550-15, Fisher Scientific), which was placed in the light path of the UV-Vis spectrometer to ensure that the entire incident beam is blocked by the tissue. For time-dependent transmission measurement, the tissue was cut to fit into a 1 cm optical path plastic cuvette (acrylic, 14-955-126, Fisher Scientific) while having sufficient area to completely block the incident light. 3 mL of Dye-4 solution was then slowly added to fully immerse the chicken breast tissue, before the cuvette was sealed by parafilm (Bemis Company, Inc., Neenah, Wisconsin, USA) to minimize water evaporation. The temperature of the cuvette was controlled between 25 and 30° C. during measurements.\nThe thickness of the tissue was measured by sandwiching the tissue between two coverslips (22×22×0.15 mm, Thermal Scientific) using a digital caliper (Mitutoyo). The transmission spectra of the tissue were measured by attaching the chicken breast tissue on a microscope slide (precleaned, Fisher Scientific)."}, "[4]": {"experiment": "UV-Vis absorption of dye solutions in water (molar absorption α, extinction coefficient)", "format": "physicochemical", "conditions": "for absorption at wavelengths above 600 nm: aqueous solutions, b66: 1 mM to 1.0 M", "excerpt": "A Thermo Fisher Scientific Evolution 350 UV-Vis spectrophotometer was used to measure the transmission and absorption spectra of dye solutions, silica phantoms, and ex-vivo chicken breast tissues. For all the measurements, 0.2 s acquisition time was used for each wavelength.\nFor transmission measurements of dye solutions, 1 mm optical path quartz cuvettes (high precision, two polished sides, Orient Analytics) were used and the cells were washed with aqua regia (mixture of 36.5-38.0 w/w % HCl and 68.0-70.0 w/w % HNO3 with a volume ratio of 3:1), fully rinsed with water and dried before use. A reference spectrum was acquired with water alone, thus correcting any loss of light due to intrinsic water absorption and reflection at the air-quartz interfaces."}, "[5]": {"experiment": "Imaging of 1951 USAF resolution target through 1-mm scattering phantoms", "conditions": "optimum K-Klear conditions", "method": "To this end, the resolvable spatial frequencies of a 1951 US Air Force (USAF) resolution target were quantified when imaging it through 1-mm scattering phantoms with different Dye-4 concentrations (FIGS. 5A-5B; FIGS. 14A-15E; see Example 7 for preparation of the phantom). The scattering phantom is placed between the objective lens and the USAF target, which is back illuminated with a white lamp (FIG. 16).\nThe hydrogel-silica scatter phantom in FIGS. 5A-5M was prepared by mixing the silica nanoparticle suspension (1 μm, 10 mg mL^−1) with low melting temperature agarose and Dye-4 of different amounts. The final concentration of agarose was 6 mg mL^−1. […] The mixture was then heated in an oven at 70° C. for at least 10 min to facilitate the dissolution of agarose. A 400-μL suspension was pipetted and injected into the well of a 1-mm silicone isolator (Grace bio-labs, Bend, Oregon, USA) mounted on a coverslip (24×40×0.15 mm, Fisher Scientific). The top of the solution was then sealed by another coverslip (22×22×0.15 mm, Thermo Scientific, Waltham, Massachusetts, USA) and the phantom was left at room temperature for slow solidification. […]"}, "chicken breast tissue [6]": {"tested_on": "chicken breast tissue", "experiment": "Ex vivo K-Klear of chicken breast tissue, transmittance and attenuation coefficient", "conditions": "immersion in 0.62 M solution, beyond 600 nm", "from_the_text": "To gradually increase the n′ of the aqueous components in chicken breast, the tissue slices were sequentially immersed in solutions containing an increasing concentration of Dye-4 (FIG. 6A; see Example 7).\nTo verify this point, the Dye-4 concentration was varied in the last immersion step and measure T before and after dye immersion (FIGS. 6C and 18).\nFor transmission measurements of chicken breast tissue, the tissue sample was first mounted on a microscope slide (precleaned, 12-550-15, Fisher Scientific), which was placed in the light path of the UV-Vis spectrometer to ensure that the entire incident beam is blocked by the tissue. For time-dependent transmission measurement, the tissue was cut to fit into a 1 cm optical path plastic cuvette (acrylic, 14-955-126, Fisher Scientific) while having sufficient area to completely block the incident light. 3 mL of Dye-4 solution was then slowly added to fully immerse the chicken breast tissue, before the cuvette was sealed by parafilm (Bemis Company, Inc., Neenah, Wisconsin, USA) to minimize water evaporation. […]\nThe thickness of the tissue was measured by sandwiching the tissue between two coverslips (22×22×0.15 mm, Thermal Scientific) using a digital caliper (Mitutoyo). The transmission spectra of the tissue were measured by attaching the chicken breast tissue on a microscope slide (precleaned, Fisher Scientific). […]"}, "mouse scalp": {"tested_on": "mouse scalp", "experiment": "In vivo optical clearing of mouse scalp by topical gel, laser speckle imaging of cerebral vessels", "parameters": "species or system mice", "conditions": "gel containing 0.62 M dye, 785 nm", "excerpt": "Given the successful clearing of scattering phantoms and chicken breasts using this approach, the possibility to achieve clearing in live animals was next explored. Procedures were developed to circumvent the destructive procedures or the use of toxic chemicals commonly used in ex vivo tissue clearing methods. […] It was hypothesized that owing to the small molecular weight and sufficiently large diffusion coefficient of Dye-4 in tissue, it can be delivered topically to optically clear the skin, thus exposing underlying structures that are otherwise obscured by the skin (FIG. 7A). […] The opacity of the scalp always requires its removal for fluorescence imaging of neuron activity or laser speckle imaging of cerebral hemodynamics in the mouse brain. […]\n(§1) Before each imaging experiment, the mice were weighed and anesthetized via intraperitoneal (i.p.) injection of a mixture of 16 mg/kg ketamine (Dechra Veterinary Products) and 0.2 mg/kg dexdomitor (Dexmedesed; Dechra Veterinary Products) by insulin syringes with a 30 G needle gauge. […] The hair over the mouse head was removed for the in-vivo fluorescence imaging at the mice head. The hair over the mouse hindlimbs was removed for in-vivo reflectance and fluorescence imaging at the hind limbs. […]"}, "mouse hindlimb skin": {"tested_on": "mouse hindlimb skin", "experiment": "In vivo optical clearing of mouse hindlimb skin by topical gel, SHG sarcomere imaging", "parameters": "species or system mice", "conditions": "gel containing 0.62 M dye topically", "excerpt": "Sarcomeres, basic contractile units of skeletal and cardiac muscles, were chosen as the targets for imaging owing to their central roles in muscle functions and implications in neuromuscular diseases (e.g., spinal muscular atrophy). Existing in vivo sarcomere imaging methods require the invasive implantation of microendoscopes inside the muscle tissue for imaging the second-harmonic generation (SHG) signals from myosin rods in the sarcomere. It was hypothesized that the need for an invasively implanted microendoscope can be alleviated by applying the K-Klear method to reduce the scattering in the skin. […] This average periodicity value between SHG-generating myosin rods agrees with the reported sarcomere lengths measured via an implanted microendoscope, thus confirming the ability of K-Klear to resolve microscopic features through cleared tissue. […]\nas §1"}, "[7]": {"conditions": "EFSA conclusion; cited from earlier work"}, "[8]": {"conditions": "when used as a clearing agent, reported; cited from earlier work"}, "[9]": {"conditions": "wavelength 600 nm, aqueous solution"}},
  "data": [
    {"molecule": "CC1(C)C(/C=C/C2=C(Cl)C(=C/C=C3\\N(CCCCS(=O)(=O)[O-])c4ccccc4C3(C)C)/CCC2)=[N+](CCCCS(=O)(=O)[O-])c2ccccc21.[Na+]", "note": "[Dye-21, Sodium 4-[2-[2-[2-chloro-3-[2-[3,3-dimethyl-1-(4-sulfonato-butyl)indol-1-ium-2-yl]vinyl]cyclohex-2-en-1-ylidene]ethylidene]-3,3-dimethyl-indolin-1-yl]butane-1-sulfonate]", "values": [
      {"measurement": "potential for clearing from β/α spectrum", "setting": "[1]; longer wavelengths / NIR spectrum", "result": "greatest potential"}
    ]},
    {"molecule": "OC[C@H]1O[C@@](CO)(O[C@H]2O[C@H](CO)[C@@H](O)[C@H](O)[C@H]2O)[C@@H](O)[C@@H]1O", "note": "[Sucrose, reference compound]", "values": [
      {"measurement": "Molar n′ change β", "setting": "[2]; wavelength 589.6 nm", "result": 0.0462, "unit": "M⁻¹"},
      {"measurement": "required immersion time to achieve the same n′ increase", "setting": "chicken breast tissue [3]; chicken breast", "result": 24, "unit": "h"}
    ]},
    {"molecule": "O=C([O-])c1nn(-c2ccc(S(=O)(=O)[O-])cc2)c(O)c1/N=N/c1ccc(S(=O)(=O)[O-])cc1.[Na+].[Na+].[Na+]", "note": "[Dye-4, Trisodium 5-hydroxy-1-(4-sulfonato-phenyl)-4-[(E)-(4-sulfonato-phenyl)diazenyl]-1H-pyrazole-3-carboxylate]", "values": [
      {"measurement": "β higher than that of molecules commonly used to raise the n′ of water", "setting": "[2]", "result": "2-3 orders of magnitude"},
      {"measurement": "efficiency in raising the n′ of water relative to glycerol on a per molar basis", "setting": "[2]; at 600 nm", "result": 11, "unit": "×"},
      {"measurement": "n′ of solution reachable", "setting": "[2]; at a soluble concentration, ellipsometry", "result": "up to 1.49"},
      {"measurement": "Molar n′ change β", "setting": "[2]; wavelength 500 nm, aqueous solution", "result": "0.198 ± 0.005", "unit": "M⁻¹"},
      {"measurement": "Molar n′ change β", "setting": "[2]; [9]", "result": "0.143 ± 0.004", "unit": "M⁻¹"},
      {"measurement": "Molar n′ change β", "setting": "[2]; wavelength 700 nm, aqueous solution", "result": "0.128 ± 0.004", "unit": "M⁻¹"},
      {"measurement": "Molar n′ change β", "setting": "[2]; wavelength 800 nm, aqueous solution", "result": "0.130 ± 0.008", "unit": "M⁻¹"},
      {"measurement": "absorption at wavelengths above 600 nm", "setting": "[4]", "result": "minimally absorbing"},
      {"measurement": "absorption at wavelengths above 600 nm", "setting": "[4]; listed as tartrazine", "result": "do not absorb"},
      {"measurement": "peak absorption wavelength", "setting": "[4]; dissolved in water", "result": 428, "unit": "nm"},
      {"measurement": "β among candidates while maintaining low α", "setting": "[1]; visible spectrum of 500-700 nm, 21 candidates", "result": "highest"},
      {"measurement": "resolvable spatial frequency through 1-mm scattering phantom", "setting": "[5]", "result": "up to 228.1 lp mm^−1"},
      {"measurement": "normalized attenuation coefficient relative to original tissue", "setting": "chicken breast tissue [6]", "result": "approximately 40%"},
      {"measurement": "time constant τ of normalized transmittance", "setting": "chicken breast tissue [3]; 0.62 M solution, tissue thickness 1.82 mm", "result": "85.0 ± 1.2", "unit": "min"},
      {"measurement": "time until transmission changes saturate", "setting": "chicken breast tissue [3]; 2-mm-thick chicken breast, 0.62 M solution", "result": "2 to 3", "unit": "h"},
      {"measurement": "diffusion coefficient", "setting": "chicken breast tissue [3]; in chicken breast tissue, clearing solution", "result": "0.66×10^−6 cm^2 s^−1"},
      {"measurement": "laser speckle image through intact scalp after topical application", "setting": "mouse scalp", "result": "clearly reveals vascular structures representative of cerebral vessels"},
      {"measurement": "characteristic periodicity (sarcomere length) identified through the skin window", "setting": "mouse hindlimb skin", "result": "2.60±0.28", "unit": "μm"},
      {"measurement": "depth at which sarcomere structures are identified through the skin", "setting": "mouse hindlimb skin; 1040 nm", "result": "> 200", "unit": "μm"},
      {"measurement": "dose with no adverse effects or systemic toxicity", "setting": "[7]", "result": "up to 2 g per kg of body weight"}
    ]},
    {"molecule": "[Cl-].[Na+]", "note": "[Sodium chloride, reference compound]", "values": [
      {"measurement": "Molar n′ change β", "setting": "[2]; wavelength 589 nm", "result": 0.00094, "unit": "M⁻¹"}
    ]},
    {"molecule": "OCC(O)CO", "note": "[Glycerol, reference compound]", "values": [
      {"measurement": "concentration needed to raise the baseline n′ of water to match that of lipids", "setting": "[2]", "result": 11.6, "unit": "M"},
      {"measurement": "Molar n′ change β", "setting": "[2]; in the visible spectrum", "result": 0.0129, "unit": "M⁻¹"},
      {"measurement": "Molar n′ change β", "setting": "[2]; wavelength 589.6 nm", "result": 0.0129, "unit": "M⁻¹"},
      {"measurement": "molar absorption coefficient α", "setting": "[4]", "result": 0.012, "unit": "M⁻¹"}
    ]},
    {"molecule": "Cc1cc(=O)n(-c2ccccc2)n1C", "note": "[Antipyrine, reference compound]", "values": [
      {"measurement": "Molar n′ change β", "setting": "[2]; [9]", "result": "0.037 ± 0.003", "unit": "M⁻¹"}
    ]},
    {"molecule": "CC(O)CO", "note": "(stereo not shown) [Propylene glycol, reference compound]", "values": [
      {"measurement": "Molar n′ change β", "setting": "[2]; wavelength 589.6 nm", "result": 0.0084, "unit": "M⁻¹"},
      {"measurement": "diffusion coefficient", "setting": "[8]", "result": "0.021×10^−6 cm^2 s^−1"}
    ]}
  ]
}
